Measured values reported in US20080207594A1, “Use of Gsk-3 Inhibitors for Preventing and Treating Pancreatic Autoimmune Disorders” (Davelogen Aktiengesellschaft, priority 2005, published 2008).

What was measured:
Pax4 [1] = test: Pax4 transcription in INS-1E insulinoma cells, quantitative RT-PCR; type: cell-based, rat; details: INS-1E cells
Description: The response of the Pax4 gene to test compounds was investigated in the rat insulinoma cell line INS-1E. INS-1E cells are known to express Pax4 and to upregulate Pax4 levels in response to the treatment with activin-A and betacellulin. In the search for novel beta cell mitogens and/or beta cell protective agents the inventors treated INS-1E cells with different test compounds.
Total RNA from 8×10^4 cells growing on 4 cm^2 surface area of a tissue culture dish was extracted using Qiagen RNAeasy kit according to the instructions of the manufacturer (Qiagen) and 2 μg was converted into cDNA. Primers for pax4, 18S RNA, and rat RNA polymerase II largest subunit (RPB1) were designed using the Primer Express 1.5 Software from Applied Biosystems and sequences can be obtained upon request. Quantitative real-time PCR was performed using Applied Biosystems SDS 7000 detection system. Amplifications from 2 independent experiments were performed in duplicate for each transcript and mean values were normalized to the mean value of the reference RNA 18S RNA.
(§1) Cells were seeded at a density of 2×10^4 cells per cm^2 6 to 8 days before the treatment with chemicals. During the growth period the medium was changed once. The cells were incubated for different periods of time with chemicals under serum-free conditions. The cells were harvested in Qiagen RNAeasy cell lysate buffer and immediately transferred to dry ice. The samples were stored at −20° C. until RNA isolation was carried out.
as §1, with “RNA easy” for “RNAeasy”, “−20 degree” for “−20° C.”

INS-1E cells = test: Protection against apoptotic signals, nucleosomal fragmentation (cell death detection ELISA) and morphology; type: cell-based, rat
Method: FIG. 7: Determination of cytokine or high glucose and fatty acid induced Nucleosomal-fragmentation in INS-1 cells. To induce apoptosis INS-1 cells were exposed to the cytokines IL-1 beta at 4 ng/ml and IFN-gamma at 1 U/ml (Cyt. in figure A) or glucose at […] and palmitate at […] (Pal/Gluc in figure B) for 24 hours. 1 hour before the application of these reagents indicated cell samples were treated with 10 μM 1-Azakenpaullone (AzaP) or 15 μM NG-monomethyl-L-arginine monoacetate (L-NMMA) an inhibitor of the inducible nitric oxide synthase (iNOS). Apoptosis was assessed by determination of nucleosomal accumulation in the cytosolic extracts using a cell death detection ELISA kit. Nucleosomal release is expressed relative to untreated control cells (Co.).
FIG. 8: Cell morphology of treated cells was inspected by light microscopy. Cell morphologies of untreated (A), Pal/Gluc (B) and Pal/Gluc+AzaP (C) treated cells are shown.
The beta cell line INS-1E was used to investigate anti-apototic effects of the compounds of the invention on beta cells. Apotosis was induced by culturing cells with a cytokine combination (interleukine-1beta/interferon gamma) or with high concentrations of both glucose and palmitate. 1-Azakenpaullone strongly (60%) inhibited cytokine-induced apoptosis (FIG. 7A), with a weaker effect (25%) against glucolipotoxicity induced apoptosis (FIG. 7B). The state of the treated and untreated cells was analyzed by microscopy.
INS-1E cells were cultured as described (Merglen et al., (2004) Endocrinology; 145: 667-678). Cells were seeded at a density of 1×10^4 cells per 96-well in 96 well plates in 200 μl culture medium for 3 days. Then, cells were cultured for 1 day in 100 μl medium containing 1% FCS and 5 mM glucose. […] The rate of apoptosis was measured by the specific determination of mono- and oligonucleosomes in the cytoplasmic fraction of cell lysates using a cell death detection ELISA kit (ROCHE Cat. No. 1774425). The assay is based on a quantitative sandwich-enzyme-immunoassay-principle using mouse monoclonal anti-histone and anti-DNA peroxidase antibodies. […]

Pax4 [2] = test: Pax4 transcription in rat islets, quantitative RT-PCR; type: cell-based
Description: The response of the Pax4 gene to two compounds was investigated in rat islets. […] No effects were observed on the expression levels of cyclophilin B and RNA polymerase II largest subunit (RPB1) indicating a specific regulation of the Pax4 gene.
Total RNA from 200 to 400 islets growing in wells with 4 cm^2 surface area of a tissue culture dish was isolated according to instruction of the manufacturer of Trizol™ reagent. To further purify the RNA and to remove remaining DNA contaminations RNA was treated with the Qiagen RNAeasy kit according to the instructions of the manufacturer (Qiagen) and about 1 μg was converted into cDNA. Primers for pax4, 18S RNA, and rat RNA polymerase II largest subunit (RPB1) were designed using the Primer Express 1.5 Software from Applied Biosystems. Quantitative real-time PCR was performed using Applied Biosystems SDS 7000 detection system. Amplifications from at least 2 independent experiments were performed in duplicate for each transcript and mean values were normalized to the mean value of the reference RNA 18S RNA.
Rat islets were isolated from Wistar rats and cultured as described (Brun et al., 2004, JCB; 167: 1123-1135). In brief, 10 ml ice-cold liberase solution (Roche) was injected into the pancreas via the common bile duct. After dissection the pancreas was incubated for 40 minutes at 37° C. and then further dissociated by repeated pipetting using a 10 ml pipette. Islets were isolated by applying digested tissue to a ficoll-gradient before they were manually picked using a stereomicroscope. Islets were placed in bacteriological wells and compounds were administered as indicated. Islets were harvested in Trizol™ and immediately transferred to dry ice. The samples were stored at −20° C. until RNA isolation was carried out.

Pax4 [3] = test: Pax4 expression in small intestine and colon
Pax4 [4] = test: Pax4 expression in human islets; type: cell-based; details: 5 μM, 48 h
Method: FIG. 2 illustrates relative Pax4 expression in untreated human islets and human islets, treated with 5 μM Kenpaullone (KP) for 48 h.
Further, human islets were treated with 5 μM Kenpaullone for 48 h. The treated islets show a 10-15 fold expression of Pax4 compared to untreated pancreatic islets.

minimal CMV promotor = test: Counter screen assay (Capan-1-pCMVmin-LUC-54 cells); type: cell-based, human; details: compound 10 μM with Trichostatin A 0.75 μM, 30 hour
Method: (§2) Generation of stable Cell Lines and Drug Selections Capan-1 human pancreatic duct cell line ([HBT-79], purchased from American Type Culture Collection (ATCC), referred to as Capan-1 herein) were grown in high glucose DMEM [Gibco Cat. No. 61965-026] containing 10% FBS [Gibco Cat. No. 10270-106] at 37° C. under an atmosphere of 5% CO2. The Pax-4-reporter gene construct (referred to as pKS-Pax-4-LUC)— a cDNA construct containing a luciferase reporter (LUC) gene under the control of the Pax4 promoter with the complete Pax4 gene locus were cloned into the plasmid pBlueskript ks (FIG. 5). The Minimal CMV reporter gene construct (referred to as pCMVmin-LUC): a fire fly luciferase reporter gene (LUC) under the control of a minimal CMV promotor (56 bp) was cloned into pcDNA3.1 plasmid (without promotor) (FIG. 6).
Stable transfected Capan-1-pCMVmin-LUC-54 cells, cultivated without G418 for 4 day's, were plated at a density of 4×10^4 cells per 96 well plate [Greiner, LIA plate white, Cat. No. 655083] in 100 μl DMEM containing 10% (v/v) FBS and grown for 24 hour. Cells were starved by serum starvation for 16 hour in 8511 medium without FBS [DMEM(Cat. No. 25030-024) containing 5% L-glutamine]. […] The luminescence was measured within 15 minutes after reagent addition for maximum sensitivity.

Pax4 promoter = test: Cellular HTS-Pax4 screening assay (Capan-1 pKS-Pax-4-LUC luciferase reporter); type: cell-based, human; details: Capan-1 pKS-Pax-4-LUC clone18; compound 10 μM with Trichostatin A 0.75 μM; 30 hour
Description: To perform high throughput screening for compounds that are either directly or indirectly capable of switching on Pax4 expression, a Pax4 reporter gene assay was established. Therefore, cDNA constructs containing a luciferase reporter gene under the control of the Pax4 promoter with the complete Pax4 gene locus were introduced into the human pancreatic duct cell line CAPAN-1.
as §2, with “The Minimal CMV reporter gene construct (referred to as pCMVmin-LUC): a fire fly luciferase reporter gene (LUC) under the control of a minimal CMV promotor (56 bp) was cloned into pcDNA3.1 plasmid (without promotor) (FIG. 6).” left out
Capan-1, stably transfected with pKS-Pax-4-LUC (clone18), cultivated without G418 for 4 day's, were plated at a density of 1×10^4 cells per 96 well plate [Greiner, LIA plate white, Cat. No. 655083] in 100 μl DMEM containing 10% (v/v) FBS without G418 and grown for 24 hour. […] The luminescence was measured within 15 minutes after reagent addition for maximum sensitivity.

human Pax4 promoter = test: Pax4 reporter gene assay in INS-1-cl.-3.5 cells; type: cell-based, rat; details: INS-1-cl.-3.5 or INS-1-cl.-9 cells; FIG. 18, FIG. 19
Method: INS-1E cell lines were grown as described below. The Pax-4-reporter gene construct (referred to as pKS-Pax-4-LUC), a cDNA construct containing a firefly luciferase reporter (LUC) gene under the transcriptional control of human Pax4 promoter sequences and the nearly complete human Pax4 gene locus (cf. FIG. 5A) was cloned into the plasmid pBluescript ks.
Adherent INS-1E cells were transfected using Lipofectamine 2000 (Invitrogen) according to the protocol provided by the supplier. The transfected cells were treated with media containing 400 μg/ml G418 Sulfate (e.g. Geneticin from Gibco; Cat. No. 11811-098), a selection agent for eukaryotic cells, 24 to 48 hours after the transfection. To establish independent stable cell lines, cell colonies which occurred 2 to 6 weeks after the transfection were individually transferred to new culture dishes and then propagated like untransfected INS-1E cells, but in the presence of G418 Sulfate.
For the identification and/or characterization of beta-cell mitogens a Pax4 reporter gene assay has been established. […]
Luciferase activity that can be quantified using appropriate imaging systems reflects the activation status of the human Pax4 promoter. […]

O=C1Cc2c([nH]c3ccc(Br)cc23)-c2ncccc2N1 [1-Azakenpaullone]
induction of relative Pax4 expression (Pax4 [1]; 3 μM): about 6 fold | cell morphology by microscopy, signs of cell death (INS-1E cells; INS-1E exposed to toxic agents (Pal/Gluc), FIG. 8): partially antagonizes this effect | inhibition of glucolipotoxicity induced apoptosis (INS-1E cells; INS-1E, glucose at 25 nM and palmitate at 0.04 nM for 24 hours, 10 μM compound 1 hour before, FIG. 7B): 25% | inhibition at 10 µM (INS-1E cells; Rattus norvegicus, INS-1E, IL-1 beta 4 ng/ml and IFN-gamma 1 U/ml for 24 hours, 10 μM compound 1 hour before, FIG. 7A, read-out: inhibition of cytokine-induced apoptosis): 60% | Pax4 RNA levels compared with technical control activin-A (Pax4 [2]): induces higher Pax4 RNA levels than activin-A | time course of Pax4 RNA levels (Pax4 [2]): transiently up-regulates Pax4 RNA levels

O=C1Cc2c([nH]c3ccc(Br)cc23)-c2ccccc2N1 [Kenpaullone, 9-Bromo-7,12-dihydro-indolo[3,2-d][1]benzazepin-6(5H)-one]
effect on Pax4 expression in small intestine and colon (Pax4 [3]): No effect | induction of relative Pax4 expression compared to the control (Pax4 [1]; 20 μM): 8 fold | Pax4 gene transcription over time (in words) (Pax4 [1]; 20 μM, FIG. 1): transiently induces Pax4 gene transcription | expression of Pax4 compared to untreated pancreatic islets (Pax4 [4]): 10-15 fold | induction in the counterscreen (minimal CMV promotor): 1.2 fold | induction of luciferase activity (Pax4 promoter): 6 fold

TGF-beta 1: Activin related protein
Pax4 reporter response of clone (in words) (human Pax4 promoter): does not effect Pax4 transcription

B1: activin-A: technical control previously shown to activate Pax4 transcription in rat islets (protein, UniProt P08476 311-426, looked up)
Inhibin beta A chain: GLECDGKVNICCKKQFFVSFKDIGWNDWIIAPSGYHANYCEGECPSHIAGTSGSSLSFHSTVINHYRMRGHSPFANLKSCCVPTKLRPMSMLYYDDGQNIIKKDIQNMIVEECGCS
modifications: Inhibin beta A chain
time course of Pax4 RNA levels (Pax4 [2]): more sustained increase in Pax4 RNA levels
